Values of other authors as cited in patent publication US6652882B1, “Controlled release formulation containing bupropion” (Intellipharmaceutics Corp, priority 1997, dated 2003).

How the values were obtained:
[1] = oral administration; mammals such as rats and dogs
[2] = during storage

absolute bioavailability [1]: 5% to 20
SMILES: CC(NC(C)(C)C)C(=O)c1cccc(Cl)c1 (racemic) [Bupropion, (±)-2-(tert-butylamino)3′-chloropropiophenone]
stability on storage [2]: subject to hydrolytic decomposition during storage
